Measurements taken from article PMC4604124, “In Vitro Characterization of the Pharmacological Properties of the Anti-Cancer Chelator, Bp4eT, and Its Phase I Metabolites” (PLoS ONE, 2015).
Several values for one entry are separate records, joined by “and”; a condition that tells them apart may be missing. Identical values can stand only once. Like-named read-outs stand apart in the source and are kept apart here.

Columns and labels:
[1] = test system: A549 human lung adenocarcinoma cells; test: MTT cytotoxicity assay, A549 cells; assay type: cell-based; conditions: for IC50: MTT
Procedure: (§1) For cytotoxicity experiments, cancer cells were seeded at a density of 5,000 (MCF-7), 10,000 (HL-60) or 2,000 cells/well (HCT116 and A549) in 96-well plates (TPP) for 24 h/37°C prior to the addition of examined agents. The non-cancerous cells, 3T3 and H9c2 cells, were cultured for 24 h/37°C in 96-well plates at a density of 10,000 cells/well, the medium was then changed to serum- and pyruvate-free DMEM (Sigma-Aldrich) and incubated with the cells for another 24 h/37°C. The cytotoxic effects of Bp4eT and its metabolites were studied at different concentrations after a 72 h/37°C incubation. In order to aid the dissolution of the lipophilic ligands, 0.1% dimethyl sulfoxide (v/v) (DMSO; Sigma-Aldrich) was present in the culture medium of all groups. At this concentration, DMSO had no effect on cellular proliferation or viability.
(§2) The viability of cells were determined using an MTT assay (Sigma-Aldrich) according to previously established methods. The optical density of soluble MTT was measured at λ = 570 nm, subtracting the λ = 690 nm background using a Tecan Infinite 200M plate reader (Tecan Group, Männedorf, Switzerland). The viability or proliferation of experimental groups was expressed as a percentage of the untreated controls (100%).
(§3) SigmaStat for Windows 3.5 (Systat Software, San Jose, CA, USA) statistical software package was utilized to analyze results. The data are expressed as the mean ± SD of a given number of experiments. Statistical significance was determined using a one-way ANOVA with a Bonferroni post-hoc test or Student’s t-test. The results were considered to be statistically significant when p < 0.05. The IC50 values were calculated using CalcuSyn 2.0 software (Biosoft, Cambridge, UK). Cell cycle analysis was evaluated using MultiCycle AV Software (Phoenix Flow Systems, San Diego, CA, USA).

H9c2 cardiomyoblasts = test: MTT cytotoxicity assay, H9c2 cells; assay type: cell-based, rat; conditions: for IC50: MTT; for MTT, relative to control (0 = 100): H9c2
Procedure: as §1, §2, §3

caspases 3/7 = test: Caspase activity, luminescent kit, caspases 3/7; assay type: cell-based, human; conditions: for kaspáza (3) a 7, raw signal / kaspáza (3) a 7, signal / viabilita: individual experiments by date; for kaspáza (3) a 7, raw signal, průměry / kaspáza (3) a 7, % kontroly / kaspáza (3) a 7, signal / viabilita, průměry: mean; for kaspáza (3) a 7, % kontroly / kaspáza (3) a 7, signal / viabilita / kaspáza (3) a 7, signal / viabilita, průměry: normalised to viability
Procedure: (§4) To assess the effect of the compounds on caspase activity, MCF-7 cells were incubated with 100 nM Bp4eT or its metabolites for 3, 24 or 72 h/37°C in 96-well plates, as described above. The cells were then lysed by adding 100 μL of cold lysis buffer (100 mM HEPES, 10 mM CHAPS, 10 mM D-L-dithiothreitol, pH 7.4) to 100 μL of medium in each well. Lysates were immediately frozen at -80°C. Thawed lysates were used to assess caspase activity using luminescent kits for caspases 3/7, 8 and 9 (Promega, Madison, WI, USA). The luminescence was measured using the Tecan Infinite 200M plate reader. Caspase activity in the experimental groups was corrected according to the cellular viability of each group and expressed as a percentage of activity of the untreated control (100%).

caspase 9 = test: Caspase activity, luminescent kit, caspase 9; assay type: cell-based, human; conditions: for kaspáza 9, raw signal / kaspáza 9, signal / viabilita: individual experiments by date; for kaspáza 9, raw signal, průměry / kaspáza 9, % kontroly / kaspáza 9, signal / viabilita, průměry: mean; for kaspáza 9, % kontroly / kaspáza 9, signal / viabilita / kaspáza 9, signal / viabilita, průměry: normalised to viability
Procedure: as §4

## CCNC(=O)NN=C(c1ccccc1)c1ccccn1 [Z-Bp4eS, 2-benzoylpyridine 4-ethylsemicarbazone]
[1]; 3T3/A549
  Therapeutic index, IC50 non-cancerous cells / IC50 neoplastic cells: >1.9
[1]; A549, 72 h/37°C, mean ± SD, n ≥ 4
  IC50: 536 ± 147 µM
[1]; A549, 2 000 b/j, 1 μM, průměr (mean), sheet Z-Bp4eS
  MTT, relative to control (0 = 100): 94.73
[1]; A549, 2 000 b/j, 1 μM, single experiment (date), sheet Z-Bp4eS
  MTT, relative to control (0 = 100): 96.1035 and 96.1124 and 90.1392 and 98.3089 and 94.9198 and 92.7894
[1]; A549, 2 000 b/j, 3 μM, průměr (mean), sheet Z-Bp4eS
  MTT, relative to control (0 = 100): 94.38
[1]; A549, 2 000 b/j, 3 μM, single experiment (date), sheet Z-Bp4eS
  MTT, relative to control (0 = 100): 93.9771 and 96.8848 and 87.0494 and 97.8403 and 95.4397 and 95.0776
[1]; A549, 2 000 b/j, 10 μM, průměr (mean), sheet Z-Bp4eS
  MTT, relative to control (0 = 100): 94.55
[1]; A549, 2 000 b/j, 10 μM, single experiment (date), sheet Z-Bp4eS
  MTT, relative to control (0 = 100): 94.0202 and 95.9602 and 87.4767 and 100.017 and 95.1483 and 94.6861
[1]; A549, 2 000 b/j, 30 μM, průměr (mean), sheet Z-Bp4eS
  MTT, relative to control (0 = 100): 91.68
[1]; A549, 2 000 b/j, 30 μM, single experiment (date), sheet Z-Bp4eS
  MTT, relative to control (0 = 100): 90.8876 and 93.251 and 83.1786 and 91.8017 and 95.6624 and 95.2834
[1]; A549, 2 000 b/j, 100 μM, průměr (mean), sheet Z-Bp4eS
  MTT, relative to control (0 = 100): 84.34
[1]; A549, 2 000 b/j, 100 μM, single experiment (date), sheet Z-Bp4eS
  MTT, relative to control (0 = 100): 76.9185 and 86.3352 and 79.6865 and 86.589 and 88.5447 and 87.9645
[1]; A549, 2 000 b/j, 300 μM, průměr (mean), sheet Z-Bp4eS
  MTT, relative to control (0 = 100): 74.88
[1]; A549, 2 000 b/j, 300 μM, single experiment (date), sheet Z-Bp4eS
  MTT, relative to control (0 = 100): 67.4475 and 78.3776 and 76.2041 and 77.4903
[1]; A549, 2 000 b/j, 1000 μM, průměr (mean), sheet Z-Bp4eS
  MTT, relative to control (0 = 100): 26.69
[1]; A549, 2 000 b/j, 1000 μM, single experiment (date), sheet Z-Bp4eS
  MTT, relative to control (0 = 100): 18.2318 and 35.0023 and 34.1521 and 19.3887
[1]; A549, 2 000 b/j, single experiment (date), sheet Z-Bp4eS
  IC50: 676 µM and 639 µM and 464 µM
[1]; H9c2/A549
  Therapeutic index, IC50 non-cancerous cells / IC50 neoplastic cells: 0.6
[1]; Homo sapiens, A549, A549, 2 000 b/j, průměr (mean), sheet Z-Bp4eS
  IC50: 536 µM
[1]; Homo sapiens, A549, A549, 2 000 b/j, single experiment (date), sheet Z-Bp4eS
  IC50: 364 µM
H9c2 cardiomyoblasts; H9c2, 72 h/37°C, mean ± SD, n ≥ 4, read-out: IC50
  IC50: 343 ± 95.1 µM
H9c2 cardiomyoblasts; 10 000 b/j, 1 μM, průměr (mean), sheet Z-Bp4eS
  MTT, relative to control (0 = 100): 99.81
H9c2 cardiomyoblasts; 10 000 b/j, 1 μM, single experiment (date), sheet Z-Bp4eS
  MTT, relative to control (0 = 100): 102.371 and 103.08 and 95.5416 and 98.2281
H9c2 cardiomyoblasts; 10 000 b/j, 3 μM, průměr (mean), sheet Z-Bp4eS
  MTT, relative to control (0 = 100): 93.78
H9c2 cardiomyoblasts; 10 000 b/j, 3 μM, single experiment (date), sheet Z-Bp4eS
  MTT, relative to control (0 = 100): 92.602 and 95.2542 and 92.4159 and 94.8358
H9c2 cardiomyoblasts; 10 000 b/j, 10 μM, průměr (mean), sheet Z-Bp4eS
  MTT, relative to control (0 = 100): 89.06
H9c2 cardiomyoblasts; 10 000 b/j, 10 μM, single experiment (date), sheet Z-Bp4eS
  MTT, relative to control (0 = 100): 88.6483 and 89.659 and 90.3674 and 87.5524
H9c2 cardiomyoblasts; 10 000 b/j, 30 μM, průměr (mean), sheet Z-Bp4eS
  MTT, relative to control (0 = 100): 76.27
H9c2 cardiomyoblasts; 10 000 b/j, 30 μM, single experiment (date), sheet Z-Bp4eS
  MTT, relative to control (0 = 100): 77.9281 and 80.0605 and 74.6409 and 72.4521
H9c2 cardiomyoblasts; 10 000 b/j, 100 μM, průměr (mean), sheet Z-Bp4eS
  MTT, relative to control (0 = 100): 56.31
H9c2 cardiomyoblasts; 10 000 b/j, 100 μM, single experiment (date), sheet Z-Bp4eS
  MTT, relative to control (0 = 100): 59.4912 and 57.2744 and 57.5228 and 50.9483
H9c2 cardiomyoblasts; 10 000 b/j, 300 μM, průměr (mean), sheet Z-Bp4eS
  MTT, relative to control (0 = 100): 53.60
H9c2 cardiomyoblasts; 10 000 b/j, 300 μM, single experiment (date), sheet Z-Bp4eS
  MTT, relative to control (0 = 100): 52.3885 and 58.4831 and 53.7777 and 49.7549
H9c2 cardiomyoblasts; 10 000 b/j, 1000 μM, průměr (mean), sheet Z-Bp4eS
  MTT, relative to control (0 = 100): 39.75
H9c2 cardiomyoblasts; 10 000 b/j, 1000 μM, single experiment (date), sheet Z-Bp4eS
  MTT, relative to control (0 = 100): 41.1185 and 45.5292 and 39.9014 and 32.4603
H9c2 cardiomyoblasts; Rattus norvegicus, H9c2, H9c2, 10 000 b/j, průměr (mean), sheet Z-Bp4eS, read-out: IC50 měřené
  IC50: 343 µM
Caspases 3/7; 3 hodiny
  kaspáza (3) a 7, raw signal: 1797.5 and 1540 and 1728.5 and 1382
  kaspáza (3) a 7, raw signal, průměry: 1612
  kaspáza (3) a 7, % kontroly: 100.57 % kontroly
  kaspáza (3) a 7, signal / viabilita: 18.4535 and 15.81 and 17.7452 and 14.1879
  kaspáza (3) a 7, signal / viabilita, průměry: 16.5491
Caspases 3/7; 24 hodin
  kaspáza (3) a 7, raw signal: 2520 and 2115 and 2668.5 and 2356.5
  kaspáza (3) a 7, raw signal, průměry: 2415
  kaspáza (3) a 7, % kontroly: 106.11 % kontroly
  kaspáza (3) a 7, signal / viabilita: 25.3376 and 21.2655 and 26.8307 and 23.6936
  kaspáza (3) a 7, signal / viabilita, průměry: 24.2818
Caspases 3/7; 72 hodin
  kaspáza (3) a 7, raw signal: 7018 and 6964.5 and 7418.5 and 7469
  kaspáza (3) a 7, raw signal, průměry: 7217.5
  kaspáza (3) a 7, % kontroly: 104.65 % kontroly
  kaspáza (3) a 7, signal / viabilita: 75.0267 and 74.4548 and 79.3083 and 79.8482
  kaspáza (3) a 7, signal / viabilita, průměry: 77.1595
Caspase 9; 3 hodiny
  kaspáza 9, raw signal: 6118 and 2344.5 and 3460 and 2039.5
  kaspáza 9, raw signal, průměry: 3490.5
  kaspáza 9, % kontroly: 100.62 % kontroly
  kaspáza 9, signal / viabilita: 62.8087 and 24.0691 and 35.5211 and 20.938
  kaspáza 9, signal / viabilita, průměry: 35.8342
Caspase 9; 24 hodin
  kaspáza 9, raw signal: 4532 and 2581 and 5427.5 and 4043
  kaspáza 9, raw signal, průměry: 4145.88
  kaspáza 9, % kontroly: 101.82 % kontroly
  kaspáza 9, signal / viabilita: 45.5674 and 25.9509 and 54.5713 and 40.6507
  kaspáza 9, signal / viabilita, průměry: 41.6851
Caspase 9; 72 hodin
  kaspáza 9, raw signal: 21491.5 and 17542 and 23160 and 18381
  kaspáza 9, raw signal, průměry: 20143.6
  kaspáza 9, % kontroly: 100.13 % kontroly
  kaspáza 9, signal / viabilita: 229.757 and 187.535 and 247.595 and 196.504
  kaspáza 9, signal / viabilita, průměry: 215.348
